According to patent publication US6919363B2, “Aryl substituted pyrazoles, triazoles and tetrazoles, and the use thereof” (Euro-Celtique S.A., priority 2000, dated 2005):
pKi: −log10 of the molar value. Like-named read-outs stand apart in the source and are kept apart here.

Key:
[1] = tested on: maximal electroshock-induced seizures (MES); assay: maximum electroshock seizure test (MES), anticonvulsant activity; assay type: in vivo, mouse
Source text: The compounds of the present invention may be tested for in vivo anticonvulsant activity after i.v., p.o. or i.p. injection using a number of anticonvulsant tests in mice, including the maximum electroshock seizure test (MES). Maximum electroshock seizures are induced in male NSA mice weighing between 15-20 g and male Sprague-Dawley rats weighing between 200-225 g by application of current (50 mA, 60 pulses/sec, 0.8 msec pulse width, 1 sec duration, D.C., mice; 99 mA, 125 pulses/sec, 0.8 msec pulse width, 2 sec duration, D.C., rats) using a Ugo Basile ECT device (Model 7801). Mice are restrained by gripping the loose skin on their dorsal surface and saline-coated corneal electrodes are held lightly against the two corneae. Rats are allowed free movement on the bench top and ear-clip electrodes are used. Current is applied and animals are observed for a period of up to 30 seconds for the occurrence of a tonic hindlimb extensor response. A tonic seizure is defined as a hindlimb extension in excess of 90 degrees from the plane of the body. Results are treated in a quantal manner.
The ability of compounds of the present invention to block maximal electroshock-induced seizures (MES) is determined as described earlier.
A compound of the present invention is administered p.o. to mice 30 minutes before the test procedure.

[2] = target: rBIIA isoform of Na+ channels (Rattus norvegicus, UniProt P04775); assay: electrophysiological assay, patch-clamp recordings of voltage-sensitive Na+ currents in HEK-293 cells; assay type: cell-based; conditions: rBIIA isoform of sodium channel
Sequence of rBIIA isoform of Na+ channels (P04775 whole entry, canonical isoform): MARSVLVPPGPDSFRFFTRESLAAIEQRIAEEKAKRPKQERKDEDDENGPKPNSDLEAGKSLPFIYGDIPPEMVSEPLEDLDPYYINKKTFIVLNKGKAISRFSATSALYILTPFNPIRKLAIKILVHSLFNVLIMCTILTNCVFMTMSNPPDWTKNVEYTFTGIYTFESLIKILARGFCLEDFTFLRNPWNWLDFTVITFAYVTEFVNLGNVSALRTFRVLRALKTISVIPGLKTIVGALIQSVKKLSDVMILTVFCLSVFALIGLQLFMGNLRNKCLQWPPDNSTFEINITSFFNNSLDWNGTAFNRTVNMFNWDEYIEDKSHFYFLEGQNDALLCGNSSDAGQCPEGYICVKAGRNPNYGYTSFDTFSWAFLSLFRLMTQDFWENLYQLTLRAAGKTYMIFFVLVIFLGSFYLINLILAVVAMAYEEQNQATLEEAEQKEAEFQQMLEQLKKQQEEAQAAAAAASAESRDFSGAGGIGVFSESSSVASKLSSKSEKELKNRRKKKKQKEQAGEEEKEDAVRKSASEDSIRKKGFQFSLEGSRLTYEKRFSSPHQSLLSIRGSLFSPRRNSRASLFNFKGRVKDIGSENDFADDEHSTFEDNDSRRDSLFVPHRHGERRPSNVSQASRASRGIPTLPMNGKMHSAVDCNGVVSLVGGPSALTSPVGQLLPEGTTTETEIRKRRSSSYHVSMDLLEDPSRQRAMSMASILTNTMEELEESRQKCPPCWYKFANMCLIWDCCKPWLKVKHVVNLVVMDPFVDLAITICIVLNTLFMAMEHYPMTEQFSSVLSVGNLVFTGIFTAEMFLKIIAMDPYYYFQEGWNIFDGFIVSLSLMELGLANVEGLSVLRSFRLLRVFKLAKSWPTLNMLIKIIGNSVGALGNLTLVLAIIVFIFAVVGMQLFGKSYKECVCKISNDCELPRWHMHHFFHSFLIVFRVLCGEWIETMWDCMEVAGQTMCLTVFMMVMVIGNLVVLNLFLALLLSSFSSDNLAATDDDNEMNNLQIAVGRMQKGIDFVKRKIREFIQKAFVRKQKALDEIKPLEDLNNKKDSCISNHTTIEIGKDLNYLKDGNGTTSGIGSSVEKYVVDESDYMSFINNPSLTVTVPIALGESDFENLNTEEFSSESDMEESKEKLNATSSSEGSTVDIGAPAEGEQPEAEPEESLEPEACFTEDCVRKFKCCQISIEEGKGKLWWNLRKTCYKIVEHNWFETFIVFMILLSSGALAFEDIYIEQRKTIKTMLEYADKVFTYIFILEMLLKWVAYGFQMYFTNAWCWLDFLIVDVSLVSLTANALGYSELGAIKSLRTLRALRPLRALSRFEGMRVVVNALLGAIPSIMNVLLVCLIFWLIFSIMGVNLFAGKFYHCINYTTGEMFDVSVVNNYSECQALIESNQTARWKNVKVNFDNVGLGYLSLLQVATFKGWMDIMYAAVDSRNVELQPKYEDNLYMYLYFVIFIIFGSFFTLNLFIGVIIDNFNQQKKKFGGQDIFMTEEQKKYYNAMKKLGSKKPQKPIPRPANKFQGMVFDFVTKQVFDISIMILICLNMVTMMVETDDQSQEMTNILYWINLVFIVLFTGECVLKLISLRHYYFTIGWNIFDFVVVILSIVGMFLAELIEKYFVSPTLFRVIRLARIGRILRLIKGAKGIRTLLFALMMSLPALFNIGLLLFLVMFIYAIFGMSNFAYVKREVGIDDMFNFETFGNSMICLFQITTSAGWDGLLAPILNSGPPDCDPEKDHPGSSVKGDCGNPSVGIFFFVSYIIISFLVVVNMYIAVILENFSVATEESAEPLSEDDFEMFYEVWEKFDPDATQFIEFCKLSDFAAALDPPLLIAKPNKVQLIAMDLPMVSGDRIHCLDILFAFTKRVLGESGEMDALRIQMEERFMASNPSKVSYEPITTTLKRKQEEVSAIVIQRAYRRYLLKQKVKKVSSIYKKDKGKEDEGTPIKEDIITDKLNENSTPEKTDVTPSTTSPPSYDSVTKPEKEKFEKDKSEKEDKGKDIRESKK
Protocol: Cell preparation: HEK-293 (NaIIA-B2) cell line stably expressing the rBIIA isoform of Na^+ channels is established in-house. The cells are cultured using standard techniques, as described previously (Verdoorn, T. A, et al., Neuron 4:919-928 (1990)). For electrophysiology, cells are plated onto poly-D-lysine pre-coated Cellware 35 mm Petri dishes (BIOCOAT, Becton Dickinson) at a density of ˜10^4 cells/dish on the day of re-seeding from confluent cultures. Our experience has been that cells are suitable for recordings for 2-3 days after plating.
Patch-clamp recordings of voltage-sensitive Na^+ currents: Whole-cell voltage-clamp recordings are made using conventional patch-clamp techniques (Hamill et al., Pfluegers Arch. 391:85-100 (1981)) with an Axopatch 200A amplifier (Axon Instruments, Foster City, Calif.). The recording chamber is continuously superfused with the external solution (150 mM NaCl, 5.4 mM KCl, 1.8 mM CaCl2, 1 mM MgCl2, 10 mM HEPES, 10 mM glucose, pH 7.4 adjusted with NaOH, osmolality ˜320 mmol/kg) at a speed of about 1 mL/min. […] Currents are recorded at room temperature (22-25° C.), filtered at 3 kHz with an active 8-pole Bessel filter (Frequency Devices, Haverhill, Mass.), digitized at 10-50 μs intervals, and stored using Digidata 1200 analog/digital interface with Pclamp6/Clampex software (Axon Instruments). […]

[3] = iv, mouse, i.v., read-out: MES i.v. ED50

SMILES	ED50 [1, 3] [mg/kg]	melting point [°C]	pKi [2]	ED50 ([1]; Mus musculus, po, mice, 30 minutes before the test procedure, read-out: MES po ED50) [mg/kg]
NC(=O)c1ccnn1-c1ccc(Oc2ccccc2)cc1 [1-(4-phenoxyphenyl)-1H-pyrazole-5-carboxamide]	10	142 to 144		
NC(=O)c1ccn(-c2ccc(Oc3ccccc3)cc2)n1 [1-(4-Phenoxyphenyl)-1H-pyrazole-3-carboxamide]	0.7	165 to 167	6.46	
O=[N+]([O-])c1ccc(Oc2ccc(-n3cncn3)cc2)cc1 [1-[4-(4-Nitrophenoxy)phenyl]-1H-[1,2,4]triazole]				6.6
